According to PubChem BioAssay AID250 (DTP/NCI, 2004):
Several values for one entry are separate records, joined by “and”; a condition that tells them apart may be missing. Equal values may be shown once. Toxic doses and inconclusive results are not listed. How the source made its calls: active means survival T/C of 150% or more; inactive means T/C below 125% in these data.

Test system: BDF1 mice, L1210 leukemia sc, survival T/C
Test: NCI In Vivo Anticancer Drug Screen. Data for tumor model L1210 Leukemia (subcutaneous) in B6D2F1 (BDF1) mice
Settings: endpoint: median survival time, vehicle: water, higher = longer survival
Procedure, shortened: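 Expressed as T/C: measurement in compound-treated, tumor-bearing mice relative to vehicle-treated control mice, based on survival or tumor size.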

Measured: T/C

O=P1(NCCCl)OCCCN1CCCl (centres undefined)
active: dose: 7.8 mg/kg/injection, schedule: Q03HX008 (ip) 166 % of control | dose: 15.62 mg/kg/injection, schedule: Q03HX008 (ip) 155 % of control | dose: 23.0 mg/kg/injection, schedule: Q03HX008 (sc) 178 % of control | dose: 31.25 mg/kg/injection, schedule: Q03HX008 (ip) 166 % of control | dose: 31.25 mg/kg/injection, schedule: Q03HX008 (sc) 166 % of control | dose: 39.0 mg/kg/injection, schedule: Q01DX009 (sc) 168 % of control | dose: 39.0 mg/kg/injection, schedule: Q01DX015 (ip) 194 % of control and 197 % of control | dose: 39.0 mg/kg/injection, schedule: Q03HX008 (sc) 210 % of control | dose: 62.5 mg/kg/injection, schedule: Q03HX008 (ip) 611 % of control | dose: 62.5 mg/kg/injection, schedule: Q03HX008 (sc) 611 % of control | dose: 65.0 mg/kg/injection, schedule: Q01DX009 (sc) 189 % of control | dose: 65.0 mg/kg/injection, schedule: Q01DX015 (ip) 236 % of control | dose: 65.0 mg/kg/injection, schedule: Q03HX008 (sc) 278 % of control | dose: 108.0 mg/kg/injection, schedule: Q01DX009 (sc) 236 % of control | dose: 108.0 mg/kg/injection, schedule: Q01DX015 (ip) 178 % of control and 187 % of control | dose: 108.0 mg/kg/injection, schedule: Q07DX003 (ip) 210 % of control and 218 % of control | dose: 108.0 mg/kg/injection, schedule: Q08DX002 (sc) 173 % of control | dose: 108.0 mg/kg/injection, schedule: Q09DX003 (sc) 154 % of control and 155 % of control | dose: 125.0 mg/kg/injection, schedule: Q01DX001 (ip) 155 % of control | dose: 125.0 mg/kg/injection, schedule: Q01DX001 (sc) 150 % of control | dose: 130.0 mg/kg/injection, schedule: Q01DX001 (sc) 154 % of control and 157 % of control | dose: 130.0 mg/kg/injection, schedule: Q04DX003 (sc) 189 % of control and 197 % of control | dose: 180.0 mg/kg/injection, schedule: Q01DX001 (ip) 183 % of control and 184 % of control | dose: 180.0 mg/kg/injection, schedule: Q01DX015 (ip) 156 % of control and 157 % of control | dose: 180.0 mg/kg/injection, schedule: Q07DX003 (ip) 252 % of control and 253 % of control | dose: 180.0 mg/kg/injection, schedule: Q08DX002 (sc) 215 % of control | dose: 180.0 mg/kg/injection, schedule: Q09DX003 (sc) 244 % of control and 245 % of control | dose: 216.0 mg/kg/injection, schedule: Q01DX001 (sc) 184 % of control and 185 % of control | dose: 216.0 mg/kg/injection, schedule: Q04DX003 (sc) 210 % of control and 216 % of control | dose: 250.0 mg/kg/injection, schedule: Q01DX001 (ip) 205 % of control | dose: 250.0 mg/kg/injection, schedule: Q01DX001 (sc) 177 % of control | dose: 256.0 mg/kg/injection, schedule: Q01DX001 (sc) 192 % of control and 195 % of control | dose: 300.0 mg/kg/injection, schedule: Q01DX001 (ip) 205 % of control | dose: 300.0 mg/kg/injection, schedule: Q01DX009 (sc) 157 % of control | dose: 300.0 mg/kg/injection, schedule: Q07DX003 (ip) 273 % of control and 279 % of control | dose: 300.0 mg/kg/injection, schedule: Q09DX003 (sc) 244 % of control and 247 % of control | dose: 320.0 mg/kg/injection, schedule: Q01DX001 (sc) 212 % of control and 220 % of control | dose: 360.0 mg/kg/injection, schedule: Q01DX001 (sc) 226 % of control and 229 % of control | dose: 360.0 mg/kg/injection, schedule: Q04DX003 (sc) 242 % of control | dose: 400.0 mg/kg/injection, schedule: Q01DX001 (sc) 235 % of control and 249 % of control | dose: 500.0 mg/kg/injection, schedule: Q01DX001 (ip) 242 % of control
inactive: dose: 7.8 mg/kg/injection, schedule: Q03HX008 (sc) 111 % of control | dose: 15.62 mg/kg/injection, schedule: Q03HX008 (sc) 122 % of control | dose: 108.0 mg/kg/injection, schedule: Q01DX001 (sc) 111 % of control and 114 % of control | dose: 108.0 mg/kg/injection, schedule: Q03HX008 (sc) 115 % of control | dose: 180.0 mg/kg/injection, schedule: Q03HX008 (sc) 105 % of control | dose: 300.0 mg/kg/injection, schedule: Q08DX002 (sc) 100 % of control | dose: 500.0 mg/kg/injection, schedule: Q08DX002 (sc) 121 % of control | dose: 500.0 mg/kg/injection, schedule: Q09DX003 (sc) 116 % of control and 122 % of control | dose: 600.0 mg/kg/injection, schedule: Q01DX001 (sc) 77 % of control | dose: 600.0 mg/kg/injection, schedule: Q04DX003 (sc) 115 % of control and 117 % of control | dose: 625.0 mg/kg/injection, schedule: Q01DX001 (sc) 124 % of control | dose: 833.0 mg/kg/injection, schedule: Q01DX001 (ip) 71 % of control | dose: 1000.0 mg/kg/injection, schedule: Q01DX001 (sc) 63 % of control
